Our source for the IC50 and Ki values is ChEMBL document CHEMBL1125446 (J Med Chem, 1992).

By IC50 is commonly meant the concentration that inhibits the measured activity by half. A lower IC50 goes with inhibition by little substance. The Ki is a measure of affinity in units of concentration, obtained from inhibition or displacement. A low value points to tighter binding.

Positions of bridges follow the written chain, without caps; N, C: chain ends. Non-standard residues stand in square brackets, D forms with d. Residues, ends and D or L forms follow the SMILES beside them. Some results are limits rather than exact numbers.

In test [1] the target is T1, Endothelin-1 receptor (Sus scrofa, UniProt Q29010).
T1 sequence (Q29010 whole entry): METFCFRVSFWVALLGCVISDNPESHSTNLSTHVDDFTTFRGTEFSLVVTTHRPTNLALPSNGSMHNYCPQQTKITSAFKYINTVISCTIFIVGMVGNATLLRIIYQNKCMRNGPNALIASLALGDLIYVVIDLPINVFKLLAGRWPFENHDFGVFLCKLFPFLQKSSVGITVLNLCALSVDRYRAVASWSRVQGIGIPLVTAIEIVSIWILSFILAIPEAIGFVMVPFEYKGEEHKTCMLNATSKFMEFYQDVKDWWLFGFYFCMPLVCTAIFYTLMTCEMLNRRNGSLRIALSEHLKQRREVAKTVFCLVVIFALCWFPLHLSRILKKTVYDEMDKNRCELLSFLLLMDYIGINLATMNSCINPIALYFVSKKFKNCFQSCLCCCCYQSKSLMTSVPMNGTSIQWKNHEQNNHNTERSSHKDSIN
Description: Compound was evaluated for the binding affinity towards Endothelin A receptor in porcine aortic membranes. It counts as cell membranes.

Test [2] concerns the target T2, Endothelin receptor type B (Rattus norvegicus, UniProt P21451).
T2 sequence (P21451 whole entry): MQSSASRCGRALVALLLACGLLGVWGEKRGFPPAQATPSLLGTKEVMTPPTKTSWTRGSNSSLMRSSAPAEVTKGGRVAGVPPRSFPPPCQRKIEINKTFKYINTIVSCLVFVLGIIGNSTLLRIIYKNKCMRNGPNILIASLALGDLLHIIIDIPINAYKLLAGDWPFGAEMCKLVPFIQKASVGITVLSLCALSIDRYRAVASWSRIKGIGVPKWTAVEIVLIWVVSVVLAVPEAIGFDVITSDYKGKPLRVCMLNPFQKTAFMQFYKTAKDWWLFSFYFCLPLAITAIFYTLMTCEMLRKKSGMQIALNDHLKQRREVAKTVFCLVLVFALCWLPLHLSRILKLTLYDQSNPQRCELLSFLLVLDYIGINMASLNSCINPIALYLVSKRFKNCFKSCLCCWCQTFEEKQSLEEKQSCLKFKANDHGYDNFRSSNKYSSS
Kind of test: Compound was evaluated for the binding affinity to Endothelin B receptor in the rat cerebellum. It counts as tissue-based.

Test [3] addresses T2, Endothelin receptor type B. Kind of test: Compound was evaluated for the binding affinity to Endothelin B receptor in the rat hippocampus. In kind it is tissue-based.
Test [4] addresses T3, Endothelin-1 receptor (Rattus norvegicus, UniProt P26684).
T3 sequence (P26684 whole entry): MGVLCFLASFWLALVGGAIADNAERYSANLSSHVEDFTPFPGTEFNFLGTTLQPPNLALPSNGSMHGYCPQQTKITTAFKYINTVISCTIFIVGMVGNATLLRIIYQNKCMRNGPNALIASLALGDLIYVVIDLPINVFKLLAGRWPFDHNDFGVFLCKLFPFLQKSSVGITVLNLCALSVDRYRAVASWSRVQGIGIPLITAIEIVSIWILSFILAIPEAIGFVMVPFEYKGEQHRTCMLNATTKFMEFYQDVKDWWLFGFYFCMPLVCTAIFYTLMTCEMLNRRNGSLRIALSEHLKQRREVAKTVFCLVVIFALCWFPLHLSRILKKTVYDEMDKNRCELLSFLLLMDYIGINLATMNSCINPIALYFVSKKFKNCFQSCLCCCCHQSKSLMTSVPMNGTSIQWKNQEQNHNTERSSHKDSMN
Kind of test: Compound was evaluated for the binding affinity to Endothelin A receptor in the rat atrium. It counts as tissue-based, Cardiac atrium.

Test [5] has as its target T3, Endothelin-1 receptor. Description: Compound was evaluated for the binding affinity to Endothelin A receptor in the rat aorta. In kind it is tissue-based.
For test [6], the target named is T4, Endothelin receptor, ET-A/ET-B (Homo sapiens, UniProt P24530+P25101).
T4 sequence (P24530 whole entry): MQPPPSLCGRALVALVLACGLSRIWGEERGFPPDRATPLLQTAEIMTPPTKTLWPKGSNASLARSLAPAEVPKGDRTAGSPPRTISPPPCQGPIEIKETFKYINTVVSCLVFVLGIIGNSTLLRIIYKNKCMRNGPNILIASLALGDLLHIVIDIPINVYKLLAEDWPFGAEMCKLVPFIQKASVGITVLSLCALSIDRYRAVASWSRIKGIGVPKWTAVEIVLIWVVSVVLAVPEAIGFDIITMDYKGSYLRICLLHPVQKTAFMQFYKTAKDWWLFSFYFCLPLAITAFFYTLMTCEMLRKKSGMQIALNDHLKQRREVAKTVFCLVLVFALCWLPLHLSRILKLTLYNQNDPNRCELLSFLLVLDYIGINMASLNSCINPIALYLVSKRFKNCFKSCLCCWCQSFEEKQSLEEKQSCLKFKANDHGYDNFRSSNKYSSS
T4 sequence (P25101 whole entry): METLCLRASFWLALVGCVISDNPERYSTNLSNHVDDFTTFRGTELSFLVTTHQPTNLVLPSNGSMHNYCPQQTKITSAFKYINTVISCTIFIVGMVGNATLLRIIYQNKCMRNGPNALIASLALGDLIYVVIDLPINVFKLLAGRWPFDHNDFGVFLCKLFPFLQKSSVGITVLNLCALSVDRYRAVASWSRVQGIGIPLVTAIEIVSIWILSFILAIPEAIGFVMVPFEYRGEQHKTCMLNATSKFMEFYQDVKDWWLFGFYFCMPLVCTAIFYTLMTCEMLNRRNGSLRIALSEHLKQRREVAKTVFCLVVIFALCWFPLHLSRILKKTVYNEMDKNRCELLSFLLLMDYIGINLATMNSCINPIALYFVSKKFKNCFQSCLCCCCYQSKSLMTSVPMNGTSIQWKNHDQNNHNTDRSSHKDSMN
Description: Compound was evaluated for the Inhibition of the contractile response of Endothelin A receptor in rabbit thoracic aorta. As to conditions: target entry is the homologue from another species. It counts as functional, tissue-based, Oryctolagus cuniculus.

Test [7] is filed under the species Rattus norvegicus. Description: Compound was evaluated for the Inositol phosphate accumulation in rat skin fibroblasts. It counts as functional.
Test [8] has as its target T1, Endothelin-1 receptor. Description: Compound was evaluated for the binding affinity to Endothelin A receptor in the porcine aortic smooth muscle.

For `CC(C)C[C@H](NC(=O)N1CCCCCC1)C(=O)N(C)[C@H](Cc1c[nH]c2ccccc12)C(=O)N[C@H](Cc1ccccn1)C(=O)N(C)CC(=O)O`, the IC50 in test [1] stood at 7600 nM.
`CNC(=O)[C@H](Cc1ccccn1)NC(=O)[C@@H](Cc1c[nH]c2ccccc12)N(C)C(=O)[C@@H](CC(=O)N1CCCCCC1)CC(C)C` had a half-inhibitory concentration (IC50) in test [1] of 7600 nM.
Still for that read-out and setting: the result for `CC(C)C[C@H](NC(=O)N1CCCCCC1)C(=O)N(C)[C@H](Cc1c[nH]c2ccccc12)C(=O)N[C@H](Cc1ccccn1)C(=O)N[C@@H](Cc1ccccc1)C(=O)O` reads 21000 nM; that for `CC(C)C[C@H](NC(=O)N1CCCCCC1)C(=O)N(C)[C@H](Cc1c[nH]c2ccccc12)C(=O)N[C@H](Cc1ccccn1)C(=O)O`, 2500 nM; that for `CC(C)C[C@H](NC(=O)Cc1ccccc1Cl)C(=O)N(C)[C@H](Cc1c[nH]c2ccccc12)C(=O)N[C@H](CC(C)C)C(=O)O`, 32000 nM.
Regarding `CC[C@H](C)[C@H](NC(=O)[C@@H](NC(=O)[C@H](CC(=O)O)NC(=O)[C@H](CCC(N)=O)NC(=O)[C@H](Cc1cnc[nH]1)NC(=O)[C@@H]1CSSC[C@H](N)C(=O)N[C@@H]([C@@H](C)O)C(=O)N[C@H]2CSSC[C@H](NC(=O)[C@H](CCC(=O)O)NC(=O)[C@H](CCC(=O)O)NC(=O)[C@H](CC(=O)O)NC(=O)[C@H]([C@@H](C)O)NC(=O)[C@H](CCSC)NC(=O)[C@H](CC(=O)O)NC(=O)[C@H](CC(N)=O)NC2=O)C(=O)N[C@@H](CC(C)C)C(=O)N[C@@H](CC(N)=O)C(=O)N[C@@H](Cc2ccccc2)C(=O)N1)C(C)C)C(=O)N[C@@H](Cc1c[nH]c2ccccc12)C(=O)O`, the Ki in test [2] was 0.016 nM; in test [3], 0.023 nM; in test [4], 4200 nM; in test [5] it was more than 5000 nM.
As for `CC(C)C[C@H](NC(=O)C1CCCCC1)C(=O)N(C)[C@H](Cc1c[nH]c2ccccc12)C(=O)N[C@H](Cc1ccccn1)C(=O)O.Cl`, the figures for the IC50 in test [1] and in test [6] were 2300 nM and 230000 nM, respectively.
In test [7], `CC[C@@H](C)[C@@H](NC(=O)[C@@H](NC(=O)[C@H](CC(=O)O)NC(=O)[C@H](CC(C)C)NC(=O)[C@H](Cc1c[nH]cn1)NC(C)=O)[C@@H](C)CC)C(=O)N[C@@H](Cc1c[nH]c2ccccc12)C(=O)O` (Ac-HLDI[dI]W-OH) gave an IC50 of less than 50000 nM.
Still for that read-out and setting: then `CC[C@H](C)[C@H](NC(=O)[C@H](CC(=O)O)NC(=O)[C@H](CC(C)C)NC(=O)[C@@H](Cc1c[nH]cn1)NC(C)=O)C(=O)N[C@H](C(=O)N[C@@H](Cc1c[nH]c2ccccc12)C(=O)O)[C@@H](C)CC` (Ac-[dH]LDIIW-OH), with 1400 nM.
With `CC[C@H](C)[C@H](NC(=O)[C@@H](NC(=O)[C@H](CC(=O)O)NC(=O)[C@H](CCC(N)=O)NC(=O)[C@H](Cc1cnc[nH]1)NC(=O)[C@@H]1CSSC[C@H](N)C(=O)N[C@@H](CO)C(=O)N[C@H]2CSSC[C@H](NC(=O)[C@H](CCC(=O)O)NC(=O)[C@H](CCCCN)NC(=O)[C@H](CC(=O)O)NC(=O)[C@H]([C@@H](C)O)NC(=O)[C@H](CCSC)NC(=O)[C@H](CC(=O)O)NC(=O)[C@H](CCCCN)NC2=O)C(=O)N[C@@H](CC(C)C)C(=O)N[C@@H](Cc2ccc(O)cc2)C(=O)N[C@@H](Cc2ccccc2)C(=O)N1)C(C)C)C(=O)N[C@@H](Cc1c[nH]c2ccccc12)C(=O)O` (H-CSCKDMTDKECLYFCHQDVIW-OH; disulfide 1-15, 3-11), the Ki in test [2] was found to be 0.013 nM; in test [3] it was 0.012 nM; in test [4], 0.087 nM; in test [5], 0.24 nM.
In test [8], `CC(C)C[C@@H]1NC(=O)[C@@H](C(C)C)NC(=O)[C@H](C)NC(=O)[C@@H](CCC(=O)O)NC(=O)[C@@H](Cc2c[nH]c3ccccc23)NC1=O` (single isomer, unassigned) returned an IC50 of 1400 nM.
With `CC(C)C[C@@H]1NC(=O)[C@@H](C(C)C)NC(=O)[C@@H]2CCCN2C(=O)[C@@H](CC(=O)O)NC(=O)[C@@H](Cc2c[nH]c3ccccc23)NC1=O` [BQ-123] (cyclo(L[dW][dD]P[dV])), the IC50 in test [8] is 22000 nM.
On to `CC[C@H](C)[C@H](NC(=O)[C@H](CC(=O)O)NC(=O)[C@H](CC(C)C)NC(=O)[C@H](Cc1c[nH]cn1)NC(=O)[C@@H]1CSSC[C@H](N)C(=O)N[C@@H]([C@@H](C)O)C(=O)N[C@H]2CSSC[C@H](NC(=O)[C@H](CCC(=O)O)NC(=O)[C@H](CCCCN)NC(=O)[C@H](CC(=O)O)NC(=O)[C@H](CCCCN)NC(=O)[C@H](Cc3ccc(O)cc3)NC(=O)[C@H]([C@@H](C)O)NC(=O)[C@H](Cc3ccccc3)NC2=O)C(=O)N[C@@H](C(C)C)C(=O)N[C@@H](Cc2ccc(O)cc2)C(=O)N[C@@H](Cc2ccc(O)cc2)C(=O)N1)C(=O)N[C@H](C(=O)N[C@@H](Cc1c[nH]c2ccccc12)C(=O)O)[C@@H](C)CC` [ENDOTHELIN 3], for which the Ki is 0.021 nM in test [2], 0.036 nM in test [3], 1.6 nM in test [4] and 2.5 nM in test [5].
With Ac-HLDIIW-OH, the IC50 in test [7] is less than 50000 nM.
In the case of H-HLDIIW-OH, in test [7], the IC50 is less than 50000 nM.
